Experimental data from patent US20110262442A1, “COMPOSITIONS FOR TREATING CNS DISORDERS” (Adenios, Inc., priority 2009, published 2011).

Legend:
[1] = test system: blood brain barrier; assay: Evans Blue dye extravasation across the blood brain barrier in mice immunized for EAE; assay type: in vivo; details: WT EAE mice; 100 μl 0.01 nM on day 1, 3, 5, 7, 9; dye on day 10
Method: In order to determine if activation of adenosine receptors would induce extravazation of Evans Blue dye across the blood brain barrier (BBB), mice were first treated on day one with NECA, a non-selective adenosine receptor agonist (n=2, 100 μl 0.01 nM); and, PBS as a vehicle control (n=2, 100 μl). On day 2 mice were then immunized with CFA-MOG35-55 and pertussis to induce EAE. Then NECA or PBS was administered every other day on day 3, day 5, day 7 and day 9. On day 10, mice were injected intravenously with 200 μl 1% Evans Blue dye ([…] total dye injected). Six hours after administration of Evans Blue, mice were anesthetized with a ketamine/xylazine mix and perfused via the left ventricle with ice cold PBS. Brains were harvested and homogenized in n,n-dimethylformamide (DMF) at 5 μl/mg (v:w). Tissue was incubated for 72 hours at room temperature in DMF to extract the dye. Following extraction, the tissue/solvent mixture was centrifuged at 500×g for 30 minutes and 100 μl of supernatant was read on a BioTex spectrophotometer at 620 nm.

[2] = test system: hCMEC/D3 cells; assay: cAMP levels in human brain endothelial cells (cAMP Screen kit); assay type: cell-based; details: 15 minutes treatment, various concentrations (CCPA: at high levels)
Method: Adenosine receptor activation regulates cAMP levels in cells. In order to determine the sensitivity of human brain endothelial cells to adenosine receptor induced cAMP regulation, human brain endothelial cells were cultured with adenosine receptor agonists at various concentrations, followed by cAMP level analysis, as shown in FIG. 13.
HCMECD3 cells were grown to confluencey on 24 well plates. As adenosine receptor (“AR”) stimulation is known to influence cAMP levels, cells were treated with or without various concentrations of NECA (general AR agonist), CCPA (A1 AR agonist), CGS 21860 (A2A AR agonist), DMSO vehicle, or Forksolin (induces cAMP). After 15 minutes, lysis buffer was added and the cells were frozen at −80 C to stop the reaction. Duplicate samples were used for each condition. cAMP levels were assayed using a cAMP Screen kit (Applied Biosystems, Foster City, Calif.).

[3] = test system: Z310 cells; assay: Jurkat cell migration across Z310-seeded Transwell (choroid plexus); assay type: cell-based, murine; details: Z310 cells on Transwell, migrated cells counted after 24 hours, n=1
Method: The choroid plexus (“CP”) controls lymphocyte migration into the CNS. The CP expresses the A1 and A2A adenosine receptors. EAE is prevented in mice when A2A adenosine receptor activity is blocked. EAE is enhanced when the A1 adenosine receptor is missing. It was hypothesized that A2A adenosine receptor activation promotes lymphocyte migration across the CP. Z310 cells are a murine choroid plexus cell line. To test the hypothesis, Transwell membranes were seeded with Z310 cells and allowed to grow to confluencey. 2×10^6 Jurkat cells were added to the upper chamber with or with out NECA (n=1, general AR agonist), CCPA (n=1, AAR agonist), CGS 21860 (n=1, A2AAR agonist), or DMSO vehicle (n=1). After 24 hours, migrated cells in the lower chamber were counted. Values are relative to the number of cells that migrate through non-Z310 seeded transwells and the results are shown in FIG. 12.

[4] = test system: hCMEC/D3 cells; assay: Jurkat cell migration across hCMEC/D3-seeded Transwell (in vitro BBB); assay type: cell-based, human; details: hCMEC/D3 on Transwell, migrated cells counted after 24 hours
From the text: The blood brain barrier (“BBB”) is comprised of endothelial cells. During late stages of EAE, lymphocytes are known to cross the BBB. In order to determine if adenosine receptor stimulation of brain endothelial cells could promote lymphocyte migration through the BBB, an in vitro BBB was established. The human brain endothelial cell line hCMEC/D3 (Weksler et al., “Blood-brain Barrier-specific Properties of a Human Adult Brain Endothelial Cell Line,” […] (2005); Poller et al., “The Human Brain Endothelial Cell Line hCMEC/D3 as a Human Blood-brain Barrier Model for Drug Transport Studies,” J. Neurochem. 107(5):1358-1368 (2008), which are hereby incorporated by reference in their entirety) was obtained, which has been previously described as having BBB properties.
hCMEC/D3 cells were seeded onto Transwell and allowed to grow to confluencey. 2×10^6 Jurkat cells were added to the upper chamber with or without NECA (general adenosine receptor [AR] agonist), CCPA (A1 AR agonist), CGS 21860 (A2A AR agonist), or DMSO vehicle. After 24 hours, migrated cells in the lower chamber were counted. Values are relative to the number of cells that migrate through non-HCMECD3 seeded transwells.

CCNC(=O)[C@H]1O[C@@H](n2cnc3c(N)ncnc32)[C@H](O)[C@@H]1O [NECA, 5′-N-ethylcarboxamidoadenosine]
BBB permeability (Evans Blue dye) over PBS control EAE mice [1]: increase in BBB permeability | cAMP levels [2]: increased cAMP levels | lymphocyte (Jurkat) migration across the CP [3]: induced migration | lymphocyte (Jurkat) migration across the in vitro BBB [4]: induced some migration
